In publication PMC5387716, “Discovery of monocarbonyl curcumin-BTP hybrids as STAT3 inhibitors for drug-sensitive and drug-resistant breast cancer therapy” (Scientific Reports, 2017):

Assays:
Format in all cases: cell-based, human
MCF-7 cells [1] = experiment: MTT anti-proliferative assay, MCF-7; conditions: Homo sapiens, MCF7, 48 h, read-out: MCF-7 IC50 ± SD
Procedure: (§1) All cell lines were purchased from Cell Bank of Shanghai Institute of Biochemistry and Cell Biology, Chinese Academy of Sciences (Shanghai, China). Human breast carcinoma cells (MCF-7 and MCF-7/DOX), breast epithelial cells (MCF-10A) and normal human liver cells (LO2) were maintained in RPMI-1640 medium. All cells were supplemented with 12% fetal bovine serum containing 50 μg/ml penicillin and 50 μg/ml streptomycin. Cells were grown to 80% confluency in a tissue culture flask at 37 °C in a humidified atmosphere containing 5% CO2, and then were trypsinized with 1 × Trypsin-Versene and split. The MCF-7/DOX cell line we used was established from its parental cell line MCF-7 cell by gradually increasing the concentration of DOX to which the cells were exposed in a stepwise manner over a period of 8 months. […] The cells were incubated in drug-free medium for at least 1 week before use.
(§2) Cells (MCF-7, MCF-7/DOX, MCF-10A, LO2) were seeded in 96-well plates at a density of 3,000–6,000 cells per well. The cells were incubated overnight (16 h) in a humidified 5% CO2 incubator at 37 °C. After media removal, different concentrations of test compounds were added in triplicate to the plates in 200 μL of fresh media and were incubated with the cells at 37 °C for 48 h. […] Cell viability was evaluated using 3-(4, 5-dimethylthiazolyl)-2,5-diphenyltetrazoliumbromide (MTT). The absorbance was read by an ELISA reader (SpectraMax Plus384, Molecular Devices, Sunnyvale, CA) at a test wavelength of 570 nm and a reference wavelength of 630 nm. Cell viability was calculated using the following formula: […]

MCF-7/DOX cells [2] = experiment: MTT anti-proliferative assay, MCF-7/DOX; conditions: Homo sapiens, MCF7-DOX; MTT, 48 h; read-out: MCF-7/DOX IC50 ± SD
Procedure: as §1, §2

Bcl-2 gene = experiment: Quantitative real-time RT-PCR of Bcl-2; conditions: MCF-7 and MCF-7/DOX cells, 24 h
Procedure: (§3) Levels of mRNA expression were analyzed with the RT-PCR assay, with total RNA isolated from MCF-7 or MCF-7/DOX cells using an EASYspin Plus tissue/cell RNA extraction kit (Aidlab Biotechnologies Co. Ltd). RNA was quantified by measuring absorption at 260 nm and 1 μg of RNA was reverse transcribed to cDNA using the Transcriptor First Strand cDNA Synthesis Kit (Roche Diagnostics, Basel, Switzerland). Thermal cycling conditions included 95 °C initial denaturation for 5 min, followed by 40 cycles of denaturation (10 s at 95 °C), annealing (15 s at 60 °C) and extension (15 s at 72 °C with a single fluorescence measurement), a melt curve program (60–95 °C with a 0.11 °C/s heat increase and continuous fluorescence measurement) and a cooling step to 40 °C. The Δ cycle threshold method was used for the calculation of relative differences in mRNA abundance with a LightCycler 480 (Roche Molecular Biochemicals, Mannheim, Germany). The data were normalized to the expression of GAPDH. The results were expressed as fold-changes. The RT-PCR primers that were used in this study are listed in the supporting information.

Cyclin D1 gene = experiment: Quantitative real-time RT-PCR of Cyclin D1; conditions: MCF-7 and MCF-7/DOX cells, 24 h
Procedure: as §3

Bax gene = experiment: Quantitative real-time RT-PCR of Bax; conditions: MCF-7 and MCF-7/DOX cells, 24 h
Procedure: as §3

MCF-7 cells [3] = experiment: Annexin V-APC/7-AAD flow cytometry of apoptosis, MCF-7; conditions: 4 μM, 24 h
Procedure: (§4) MCF-7, MCF-7/DOX or MCF-10A cells, at a density of 2.5 × 10^5 cells per well, were cultured in regular growth medium in 6-well plates for 24 h and treated in duplicate with different concentrations of 6b or curcumin for 24 h. The cells were harvested, washed and stained with 5 μL of Annexin V-APC and 5 μL of 7-AAD at room temperature for 15 min. Cells were then analyzed by flow cytometry (488 nm excitation and 600 nm emission filters) using a BD FACSCalibur flow cytometer (Becton & Dickinson Company, Franklin Lakes, NJ).

MCF-7/DOX cells [4] = experiment: Annexin V-APC/7-AAD flow cytometry of apoptosis, MCF-7/DOX; conditions: 4 μM, 24 h
Procedure: as §4

MCF-7 cells [5] = experiment: Flow cytometry of the cell cycle, MCF-7; conditions: MCF-7, 4 μM, 24 h
Procedure: (§5) MCF-7 or MCF-7/DOX cells were plated in 6-well culture plates (1.5 × 10^5 cells per well). After incubation overnight, various concentrations of 6b or curcumin were added and cells were incubated for 24 h. Cells were harvested, washed with cold PBS, and incubated with pre-cooled 70% ethanol for a minimum of 4 h at 4 °C to fix them. The cells were then centrifuged, carefully aspirated from the supernatant, and re-suspended in a propidium iodide (final concentration, 40 μg/ml) and RNase A (final concentration, 100 μg/ml) solution at a final cell density of 0.5 × 10^6 cells/ml. The suspension was incubated at 37 °C for 30 min prior to analysis by flow cytometry.

MCF-7/DOX cells [6] = experiment: Flow cytometry of the cell cycle, MCF-7/DOX; conditions: 4 μM, 24 h
Procedure: as §5

MCF-7 cells [7] = experiment: ROS detection by DCFH-DA flow cytometry, MCF-7; conditions: MCF-7, 4 μM, 24 h
Procedure: (§6) MCF-7 or MCF-7/DOX cells were seeded at a density of 3 × 10^5 cells per well of a 6-well plate and treated with various concentrations of 6b (0, 1, 2, 4 μM) or 4 μM curcumin for 24 h. DCFH-DA was dissolved in serum-free medium and diluted to a final concentration of 10 μM. After treatment with 6b, the growth media was replaced with serum-free medium containing the probe. After incubation for 20 min at 37 °C, cells were washed with serum-free medium twice, digested by trypsin and resuspended in pre-warmed PBS buffer. The samples were then subjected to a flow cytometry assay using a BD FACSCalibur flow cytometer (Becton & Dickinson Company, Franklin Lakes, NJ).

MCF-7/DOX cells [8] = experiment: ROS detection by DCFH-DA flow cytometry, MCF-7/DOX; conditions: 4 μM, 24 h
Procedure: as §6

For `COc1cc(/C=C/C(=O)CC(=O)/C=C/c2ccc(O)c(OC)c2)ccc1O` [curcumin], the IC50 (MCF-7 cells [1]) was 37.7 ± 8.2 µM, the IC50 (MCF-7/DOX cells [2]) was 32.7 ± 4 µM and the “Bcl-2 gene level (in words)” value (Bcl-2 gene) was “little effect”. For the same molecule, the “Cyclin D1 gene level (in words)” value (Cyclin D1 gene) was “little effect”, the “Bax gene level (in words)” value (Bax gene) was “little effect” and the apoptosis rate (MCF-7 cells [3]) was “small effect”. The apoptosis rate (MCF-7/DOX cells [4]) was “small effect”, the “effect on the cell cycle” value (MCF-7 cells [5]) was “little effect” and the “effect on the cell cycle” value (MCF-7/DOX cells [6]) was “little effect”. The ROS generation (MCF-7 cells [7]) was “little effect” and the ROS generation (MCF-7/DOX cells [8]) was “little effect”.
